# Results taken from US11363816B2, “4-amino-6-(heterocyclic)picolinates and 6-amino-2-(heterocyclic)pyramidine-4-carboxylates and their use as herbicides” (Dow AgroSciences LLC, priority 2017, dated 2022).
# Columns and labels:
# Test in all cases: Postemergence field trial, Hanley, Saskatchewan, Canada
# Type in all cases: in vivo
# Conditions in all cases: 66DAAA
# [1] = test system: CHEAL=Chenopodium album L. (common lambsquarters)
# Description: (§1) Field trials were established in Canada (in Ellerslie, Alberta; Nisku, Alberta and Hanley, Saskatchewan) to evaluate the efficacy of Compound 5, Compound 6, and Compound 7. Trials were designed as randomized complete blocks with four replicates. Trials were established in spring wheat with natural weed population with plot sizes of 2-3 meters (m) by 8-10 m (width×length). The crops were grown using normal cultural practices for fertilization, seeding, and maintenance to ensure good growth of the crop.
# (§2) All herbicide treatments were applied post-emergence with applications made to the crops at BBCH (Phenological development stages of a plant) 14 to 22 growth stage. Herbicides were applied with backpack or bicycle sprayers using carbon dioxide (CO2) as a propellant. The sprayers utilized flat fan air-induction spray nozzles calibrated to deliver a uniform spray pattern that provided thorough coverage of the foliage using a 100 L/ha spray volume. All treatments were applied with methylated seed oil (MSO) at 1.25% v/v. Phytotoxicity to the weeds was assessed visually at several intervals after application as percent overall control, compared to an untreated control plot. In general, four replicates were assessed for each treatment. All treatment results are an average of four replicates.
# (§3) Compound 5, Compound 6 and Compound 7 were applied as emulsifiable concentrate (EC) formulations at 100 g ae/L EC, respectively.
# [2] = test system: KCHSC=Kochia scoparia (L.) Schrad. (Kochia)
# Description: as §1, §2, §3
# [3] = test system: POLCO=Polygonum convolvulus L. (wild buckwheat)
# Description: as §1, §2, §3
Compound,Percent (%) Visual Control CHEAL ([1]; 10 g ae/ha) [%],Percent (%) Visual Control CHEAL ([1]; 20 g ae/ha) [%],Percent (%) Visual Control CHEAL ([1]; 40 g ae/ha) [%],Percent (%) Visual Control KCHSC ([2]; 10 g ae/ha) [%],Percent (%) Visual Control KCHSC ([2]; 20 g ae/ha) [%],Percent (%) Visual Control KCHSC ([2]; 40 g ae/ha) [%],Percent (%) Visual Control POLCO ([3]; 10 g ae/ha) [%],Percent (%) Visual Control POLCO ([3]; 20 g ae/ha) [%],Percent (%) Visual Control POLCO ([3]; 40 g ae/ha) [%]
"N#CCOC(=O)c1nc(-c2ccc3cc[nH]c3c2F)c(F)c(N)c1Cl [Compound 6, cyanomethyl 4-amino-3-chloro-5-fluoro-6-(7-fluoro-1H-indol-6-yl)picolinate]",95,98.3,99,62,81.5,92.5,47.5,68.8,85.8
"Nc1c(F)c(-c2ccc3cc[nH]c3c2F)nc(C(=O)OCc2ccccc2)c1Cl [Compound 7, benzyl 4-amino-3-chloro-5-fluoro-6-(7-fluoro-1H-indol-6-yl)picolinate, reference compound]",95.5,98.5,98.8,45,72,78.8,46.3,63.3,70
